Measured values: the supplement of paper PMC10307832

What was measured:
Test in all cases: relative viability (nuclei count vs DMSO), 5 days (fraction); higher = more cells survive
[1] = compound: C1COCCN1C2=NC(=NC3=C2OC4=C3C=CC=N4)C5=CC(=CC=C5)NC(=O)C6=CN=C(C=C6)N + Nc1ncn([C@H]2C[C@H](O)[C@@H](CO)O2)c(=O)n1 [Decitabine] (partner 2 µM)
In short: (§1)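 Nuclei were stained with Hoechst during a one-step fixation (final 0.05% Triton X-100, 1% formaldehyde, 1 ug/ml Hoechst) carried out 5 days after dosing, then counted on 4× images. The cells, lung cancer lines in 1536-well plates, had been dosed by pin tool the day after seeding with one drug alone or a fixed anchor-drug dose plus five library-drug doses (not always all listed) in √10 steps. Relative viability is the nuclei count in treated wells divided by that in vehicle wells, and each value is the median of duplicate plates.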

Entinostat + Crizotinib = compound: Nc1ccccc1NC(=O)c1ccc(CNC(=O)OCc2cccnc2)cc1 [Entinostat] + C[C@@H](Oc1cc(-c2cnn(C3CCNCC3)c2)cnc1N)c1c(Cl)ccc(F)c1Cl [Crizotinib] (partner 1 µM)
In short: as §1

Entinostat + Linsitinib = compound: Nc1ccccc1NC(=O)c1ccc(CNC(=O)OCc2cccnc2)cc1 [Entinostat] + C[C@]1(O)C[C@@H](c2nc(-c3ccc4ccc(-c5ccccc5)nc4c3)c3c(N)nccn32)C1 [Linsitinib] (partner 1 µM)
In short: as §1

SGI-1776 + Olaparib = compound: CN1CCC(CNc2ccc3ncc(-c4cccc(OC(F)(F)F)c4)n3n2)CC1 [SGI-1776] + O=C(c1cc(Cc2n[nH]c(=O)c3ccccc23)ccc1F)N1CCN(C(=O)C2CC2)CC1 [Olaparib] (partner 8 µM)
In short: as §1

Cell Line	relative viability ([1]; first compound 0.02 µM)	relative viability ([1]; first compound 0.06325 µM)	relative viability ([1]; first compound 0.2 µM)	relative viability ([1]; first compound 0.6325 µM)	relative viability ([1]; first compound 2 µM)	relative viability (Entinostat + Crizotinib; first compound 0.02 µM)	relative viability (Entinostat + Crizotinib; first compound 0.06325 µM)	relative viability (Entinostat + Crizotinib; first compound 0.2 µM)	relative viability (Entinostat + Crizotinib; first compound 0.6325 µM)	relative viability (Entinostat + Crizotinib; first compound 2 µM)	relative viability (Entinostat + Linsitinib; first compound 0.02 µM)	relative viability (Entinostat + Linsitinib; first compound 0.06325 µM)	relative viability (Entinostat + Linsitinib; first compound 0.2 µM)	relative viability (Entinostat + Linsitinib; first compound 0.6325 µM)	relative viability (Entinostat + Linsitinib; first compound 2 µM)	relative viability (SGI-1776 + Olaparib; first compound 0.08 µM)	relative viability (SGI-1776 + Olaparib; first compound 0.8 µM)	relative viability (SGI-1776 + Olaparib; first compound 2.53 µM)	relative viability (SGI-1776 + Olaparib; first compound 8 µM)
201T	0.864	0.856	0.872	0.862	0.785	1.03	1.03	0.919	0.743	0.754	1.1	1.13	1.09	0.902	0.617	0.856	0.893	0.854	0.9
A549		0.362	0.265	0.238	0.256	0.775	0.863	0.743	0.449	0.111	0.595	0.646	0.627	0.648	0.602	0.39	0.395	0.389	0.312
A-427	0.588	0.512	0.619	0.679	0.579	0.808	1.06	0.864	0.665	0.545	1.16	1.15	1.01	1.07	0.825	0.724	0.723	0.739	0.569
ABC-1	0.929	1.07	0.98	1.23	1.08	0.925	1.24	1.17	0.814	0.28	0.686	0.992	0.807	0.481	0.506	0.78	0.874	0.5	0.842
BEN	0.75	0.762	0.697	0.752	0.637	0.985	0.884	0.997	0.631	0.31	0.974	0.928	0.83	0.537	0.249	1.01	1.15	1.07	0.966
CAL-12T						0.7	0.732	0.864	0.594	0.251	0.838	0.815	0.814	0.909	0.392	0.713	0.738	0.833	0.696
COR-L23	0.478	0.502	0.469	0.602	0.389	0.508	0.524	0.513	0.205	0.0924	0.829	0.763	0.748	0.416	0.132	0.345	0.396	0.377	0.275
COR-L 105	0.604	0.683	0.61	0.621	0.572	0.92	0.778	0.655	0.494	0.216	1.01	0.974	0.876	0.491	0.341	0.775	0.726	0.77	0.631
Calu-6						0.738	0.713	0.755	0.494	0.317	0.859	0.961	0.852	0.739	0.502	0.61	0.559	0.642	0.474
ChaGo-K-1	0.563	0.544	0.517	0.601	0.458	1.18	1.19	0.967	0.966	0.631						0.393	0.487	0.405	0.45
EBC-1						0.177	0.191	0.215	0.202	0.159	0.934	0.94	0.811	0.22	0.122	0.74	0.732	0.687	0.573
EKVX	0.335	0.321	0.325	0.383	0.567	0.81	0.977	1.03	0.819	0.432	0.896	1.01	0.79	0.663	0.438	0.827	0.906	0.875	0.737
EMC-BAC-2	0.96	1.06	0.947	0.953	0.779	0.812	0.702	0.708	0.522	0.368	0.837	0.915	0.983	0.731	0.487	0.504	0.506	0.509	0.452
EPLC-272H	0.329		0.386	0.382	0.376	0.924	0.872	0.933	0.61	0.322	1.2	1.22	0.697	0.627	0.405	1.01	0.922	0.737	0.348
H3255	0.577	0.575	0.599	0.798	0.559	0.9	0.747	0.777	0.452	0.286	0.892	0.87	0.765	0.507	0.304	0.563	0.595	0.646	0.529
HARA	0.529	0.569	0.64	0.576	0.412	1.02	1.02	1.05	0.974	0.565	0.917	0.938	0.938	0.793	0.577	1.09	0.986	0.667	0.57
HCC-15	0.606	0.646	0.608	0.691	0.429	0.792	0.744	0.745	0.548	0.307	0.82	0.8	0.713	0.546	0.319	0.717	0.759	0.755	0.687
HCC-44	0.892	0.93	1.01	0.929	0.989	0.773	0.614	0.453	0.339	0.22	0.676	0.474	0.357	0.27	0.197	0.998	0.973	0.89	0.984
HCC-78	0.69	0.78	0.671	0.961	0.777	0.37	0.293	0.234	0.163	0.141	0.496	0.395	0.306	0.156	0.151	0.891	0.91	0.801	0.95
HCC-366	0.296	0.395	0.343	0.373	0.223	0.447	0.407	0.283	0.0613	0.0249	0.859	0.758	0.461	0.175	0.0447	0.347	0.449	0.379	0.294

Cell Line	relative viability ([1]; first compound 0.02 µM)	relative viability ([1]; first compound 0.06325 µM)	relative viability ([1]; first compound 0.2 µM)	relative viability ([1]; first compound 0.6325 µM)	relative viability ([1]; first compound 2 µM)	relative viability (Entinostat + Crizotinib; first compound 0.02 µM)	relative viability (Entinostat + Crizotinib; first compound 0.06325 µM)	relative viability (Entinostat + Crizotinib; first compound 0.2 µM)	relative viability (Entinostat + Crizotinib; first compound 0.6325 µM)	relative viability (Entinostat + Crizotinib; first compound 2 µM)	relative viability (Entinostat + Linsitinib; first compound 0.02 µM)	relative viability (Entinostat + Linsitinib; first compound 0.06325 µM)	relative viability (Entinostat + Linsitinib; first compound 0.2 µM)	relative viability (Entinostat + Linsitinib; first compound 0.6325 µM)	relative viability (Entinostat + Linsitinib; first compound 2 µM)	relative viability (SGI-1776 + Olaparib; first compound 0.08 µM)	relative viability (SGI-1776 + Olaparib; first compound 0.8 µM)	relative viability (SGI-1776 + Olaparib; first compound 2.53 µM)	relative viability (SGI-1776 + Olaparib; first compound 8 µM)
HCC-827	0.343	0.298	0.348	0.287	0.302	0.868	0.889	0.699	0.559	0.384	0.958	0.883	0.722	0.582	0.421	0.694	0.615	0.739	0.658
HOP-62	0.193	0.227	0.243	0.313	0.412	0.951	1.03	0.812	0.618	0.288	0.743	1.01	0.711	0.403	0.266	0.436	0.63	0.448	0.59
IA-LM						0.731	0.855	0.928	0.728	0.651	0.645	0.774	0.785	0.628	0.543	0.97	0.785	0.919	0.846
LC-2-ad	0.881	0.788	0.92	0.835	0.618	0.521	0.4	0.36	0.296	0.241	0.769	0.831	0.7	0.489	0.219	0.755	0.776	0.756	0.696
LCLC-97TM1	0.286	0.236	0.241	0.333	0.236	0.285	0.435	0.303	0.273	0.151	0.158	0.147	0.139	0.165	0.14	0.421	0.421	0.419	0.439
LCLC-103H	0.724	0.723	0.731	0.733	0.527	0.968	1.03	0.992	0.801	0.631	1.07	1.12	0.937	0.931	0.715	0.781	0.776	0.716	0.7
LK-2	0.306	0.267	0.256	0.259	0.243	0.252	0.234	0.227	0.255	0.248	0.522	0.59	0.639	0.459	0.274	0.783	0.768	0.717	0.579
NCI-H522	0.633	0.798	0.694	0.563	0.645											0.612	0.52	0.623	0.551
NCI-H1299						0.904	0.925	0.91	0.767	0.561	0.962	0.914	0.95	0.754	0.601	1.01	0.962	1.05	0.897
NCI-H1395	0.719	0.672	0.75	0.788	0.849						1.1	1.13	1.01	0.885	0.594	0.473	0.452	0.438	0.347
NCI-H1563						0.781	0.907	0.759	0.711	0.735	1.14	1.2	1.09	0.897	0.769				
NCI-H1648	0.41	0.481	0.456	0.509	0.52											0.648	0.763	0.761	1.21
NCI-H1650	0.415	0.401	0.58	0.661	0.461	0.923	0.928	0.988	0.729	0.359						0.8	0.946	0.734	0.607
NCI-H1703						0.674	0.786	0.884	0.415	0.358	0.883	0.805	0.857	0.919	0.582	0.338	0.394	0.387	0.12
NCI-H1793	0.445	0.514	0.457	0.602	0.407						0.964	0.841	0.834	0.698	0.364	0.87	0.99	0.864	0.8
NCI-H2170	0.493	0.488	0.48	0.551	0.506	1.17	1.06	1.02	0.704	0.491						0.638	0.686	0.651	0.614
NCI-H2228						0.479	0.429	0.337	0.378	0.221	0.587	0.635	0.578	0.365	0.354	0.671	0.762	0.548	0.396
NCI-H2342	0.724	0.727	0.751	0.743	0.693											0.525	0.445	0.454	0.49
SW 900	0.402	0.42	0.448	0.648	0.558											0.792	0.886	1.15	0.636
